For assay [1], the target named is Sodium-dependent serotonin transporter. Kind of assay: Inhibition of [3H]citalopram binding to serotonin transporter (SERT) of cynomolgus monkey caudate-putamen. In kind it is tissue-based.
Assay [2] concerns the target Sodium-dependent dopamine transporter (Macaca fascicularis, UniProt Q9GJT6). Kind of assay: Inhibition of [3H]WIN-35428 binding to dopamine transporter (DAT) of cynomolgus monkey caudate-putamen. The format is tissue-based.

The text below walks through data of ChEMBL document CHEMBL1132078, “Bicyclo[3.2.1]octanes: synthesis and inhibition of binding at the dopamine and serotonin transporters” (Bioorg Med Chem Lett, 1999).

Chain of Sodium-dependent dopamine transporter (Q9GJT6 whole entry): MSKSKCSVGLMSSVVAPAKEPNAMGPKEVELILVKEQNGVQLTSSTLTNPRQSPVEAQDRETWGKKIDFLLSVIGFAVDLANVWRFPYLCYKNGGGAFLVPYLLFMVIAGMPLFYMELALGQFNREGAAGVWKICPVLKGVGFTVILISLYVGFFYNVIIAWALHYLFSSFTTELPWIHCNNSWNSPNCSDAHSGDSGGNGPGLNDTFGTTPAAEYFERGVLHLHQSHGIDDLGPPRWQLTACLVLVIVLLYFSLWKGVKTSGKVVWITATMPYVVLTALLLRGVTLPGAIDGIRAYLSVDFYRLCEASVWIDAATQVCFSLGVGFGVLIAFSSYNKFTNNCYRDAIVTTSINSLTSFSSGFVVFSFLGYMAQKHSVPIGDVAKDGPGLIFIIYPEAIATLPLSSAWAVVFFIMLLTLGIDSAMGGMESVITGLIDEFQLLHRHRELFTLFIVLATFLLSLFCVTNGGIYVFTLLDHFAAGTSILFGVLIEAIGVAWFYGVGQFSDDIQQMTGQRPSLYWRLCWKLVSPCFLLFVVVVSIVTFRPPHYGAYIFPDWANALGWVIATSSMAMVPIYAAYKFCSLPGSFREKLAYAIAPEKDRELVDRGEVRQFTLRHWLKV

Turning to `COC(=O)C1C2CCC(CC1c1ccc(Cl)c(Cl)c1)N2` (stereo not given), the results for the IC50 in assay [1] and in assay [2] were 1.24 nM and 0.7 nM, respectively.

Take `COC(=O)C1C(c2ccc(Cl)c(Cl)c2)CC2CCC1N2C` (stereo not given): the results for the IC50 in assay [1] and in assay [2] were 27.6 nM and 1.1 nM, respectively.

As to `COC(=O)C1=C(c2ccc(Cl)c(Cl)c2)CC2CCC1N2C` (stereo not given), the IC50 in assay [1] worked out at 867 nM; in assay [2] it was 1.2 nM.

In the case of `COC(=O)C1C2CCC(C2)CC1c1ccc(Cl)c(Cl)c1` (racemic), the IC50 was 180 nM in assay [1] and 14.3 nM in assay [2].

For `COC(=O)C1=C(c2ccc(Cl)c(Cl)c2)CC2CCC1C2` (racemic), the half-maximal inhibitory concentration (IC50) in assay [1] was determined as 5160 nM; in assay [2], 7.1 nM.

In turn, `COC(=O)C1C2CCC(CC1c1ccc(Cl)c(Cl)c1)O2` (racemic; form 1) gave an IC50 in assay [2] of 3.4 nM.

Compound `COC(=O)C1C2CCC(CC1c1ccc(Cl)c(Cl)c1)O2` (racemic; form 2) showed an IC50 in assay [2] of 3.1 nM.

Consider `COC(=O)C1=C(c2ccc(Cl)c(Cl)c2)CC2CCC1O2` (stereo in doubt; 5b (R)), for which the figures for the 50% inhibitory concentration (IC50) in assay [1] and in assay [2] were 2120 nM and 4.2 nM, respectively.

Consider `COC(=O)C1=C(c2ccc(Cl)c(Cl)c2)CC2CCC1O2` (stereo in doubt; 5b (R/S)), for which the IC50 in assay [1] came out at 1960 nM; in assay [2], 12.8 nM.

In the case of `COC(=O)C1C2CCC(C2)CC1c1ccc(Cl)c(Cl)c1` (stereo in doubt; 6a (R/S)), the half-inhibitory concentration (IC50) in assay [1] was 33.4 nM; in assay [2], 9.6 nM.

Turning to `COC(=O)C1C2CCC(CC1c1ccc(Cl)c(Cl)c1)O2` (stereo in doubt; 7b (R)), the IC50 in assay [1] was determined as 30.3 nM; in assay [2], 2.3 nM.
